Converted amounts (≈) assume the structure as drawn. Like-named read-outs stand apart in the source and are kept apart here.

Consider 14 molecules from patent US7495027B2, “3-aryl-4-hydroxyfuranone compounds and the human and animal health use thereof” (Wyeth, priority 2003, dated 2009).

Assay [1] has as its target E. coli Enopyruvyl-UPD-N-acetylglucosamine reductase, Mur B (Escherichia coli, UniProt P08373). Nature of the assay: biochemical. As to conditions: (E) E. coli enzyme; for IC50: read-out: MurB IC50 (converted).
In assay [2] the target is T1, S. aureus Enopyruvyl-UPD-N-acetylglucosamine reductase, Mur B (Staphylococcus aureus, UniProt P61431).
T1 sequence (P61431 1-307): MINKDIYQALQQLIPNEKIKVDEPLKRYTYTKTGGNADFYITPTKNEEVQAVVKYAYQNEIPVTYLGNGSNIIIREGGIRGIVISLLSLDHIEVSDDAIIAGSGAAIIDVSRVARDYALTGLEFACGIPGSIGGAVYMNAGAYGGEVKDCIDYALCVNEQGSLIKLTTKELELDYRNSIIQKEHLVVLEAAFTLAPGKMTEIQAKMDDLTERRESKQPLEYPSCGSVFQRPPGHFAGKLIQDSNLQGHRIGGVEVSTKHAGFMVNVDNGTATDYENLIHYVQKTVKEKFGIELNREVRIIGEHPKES
Nature of the assay: biochemical. The note with it: (S) S. aureus enzyme; for IC50: read-out: MurB IC50 (converted).

Assay [3] deals with enterococci. Nature of the assay: Minimum inhibitory concentration, microdilution broth method, enterococci. The class given is cell-based. As to conditions: Mueller-Hinton broth, 18-22 hours at 35° C.; for MIC: Enterococcus faecalis. The method, boiled down: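 Organisms, including methicillin-, penicillin- and/or vancomycin-resistant clinical isolates, tested by NCCLS M7-A5 microdilution. Medium: Mueller-Hinton broth for staphylococci and enterococci, supplemented with 5% lysed horse blood for streptococci.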
In general terms: Broth dilution looks for growth in wells or tubes with falling amounts of substance.

For assay [4], the target named is T2, S. aureus Uridine-diphosphate-N-acetvimuramoyl: L-alanine lipase, MurC (Staphylococcus aureus, UniProt Q2FXJ0).
T2 sequence (Q2FXJ0 1-437): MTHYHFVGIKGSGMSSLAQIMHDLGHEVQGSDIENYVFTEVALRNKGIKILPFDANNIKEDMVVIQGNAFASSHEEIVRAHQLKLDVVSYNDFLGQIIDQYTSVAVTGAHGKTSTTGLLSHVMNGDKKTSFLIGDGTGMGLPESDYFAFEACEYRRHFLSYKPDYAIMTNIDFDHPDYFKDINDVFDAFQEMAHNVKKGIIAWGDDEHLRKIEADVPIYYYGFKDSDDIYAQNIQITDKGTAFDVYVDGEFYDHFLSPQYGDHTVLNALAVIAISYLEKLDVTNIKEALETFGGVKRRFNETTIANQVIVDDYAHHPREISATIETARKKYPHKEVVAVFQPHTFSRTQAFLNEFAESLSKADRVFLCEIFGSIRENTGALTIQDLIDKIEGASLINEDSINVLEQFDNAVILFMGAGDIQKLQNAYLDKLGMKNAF
The assay can be described thus: biochemical. As to conditions: (S) S. aureus enzyme; for IC50: read-out: MurC IC50 (converted). The method, then: S. aureus and E. coli Uridine-diphosphate-N-acetvimuramoyl: L-alanine lipase, MurC
Preparation of Enzyme Solution:
A 1 mg/mL stock solution of MurC is prepared in a buffer consisting of 20 mM Tris/HCl (pH 8.5) with 2.5 μM BME. The stock solution is further diluted with the buffer to give a final enzyme concentration of 100 μg/mL for the E. coli stock solution and 70 μg/mL for the S. aureus stock solution.
Preparation of Test Compound Solutions:
All test solutions are prepared in DMSO as 10 mg/mL, then diluted with 50 mM Tris/HCl (pH 8.5) to 100 μg/mL.
Preparation of Stop Solution:
The stop solution is prepared by stirring 1 part 4.2% ammonium molydbate in 4N HCl with 2 parts 0.045% malachite green for 30 min.
In this evaluation, the inhibitory activity of a test compound against MurC, the enzyme which catalyzes the third step of bacterial cell wall bioxynthesis is determined. Experiments are performed by adding 2.5 μl buffer, 2.5 μl 0.5M NH4SO2, 5 μl 2 μM L-Ala, 5 μl enzyme solution and 6.5 μl test compound solution to each well in a 96-well microplate. After a pre-incubation period of 10 mins. at 23° C., 3.75 μl of a 0.75 μM solution of UDP-MurNac is added to each well. Following an incubation period of 10 mins. at 37° C., 210 μl stop solution and 50 μl of a 34% w/v sodium citrate solution are added and color is allowed to develop for 10 mins. at 23° C. (Lanzetta et al., Analytical Biochemistry, 1979, 95) Optical density readings are taken at 660 nm using a Molecular Devices Spectra Max 250 with Soft Max software. Controls are performed using the same procedure and omitting the addition of UDP-MurNac. […]
Using these values the IC50 is determined by linear regression analysis.

The mark [5] stands for this setting: E. faecalis GC 2242, read-out: MIC E. faecalis GC 2242.
Setting [6] is: E. faecalis GC 4555, read-out: MIC E. faecalis GC 4555.

E. coli Enopyruvyl-UPD-N-acetylglucosamine reductase, Mur B, sequence (P08373 whole entry): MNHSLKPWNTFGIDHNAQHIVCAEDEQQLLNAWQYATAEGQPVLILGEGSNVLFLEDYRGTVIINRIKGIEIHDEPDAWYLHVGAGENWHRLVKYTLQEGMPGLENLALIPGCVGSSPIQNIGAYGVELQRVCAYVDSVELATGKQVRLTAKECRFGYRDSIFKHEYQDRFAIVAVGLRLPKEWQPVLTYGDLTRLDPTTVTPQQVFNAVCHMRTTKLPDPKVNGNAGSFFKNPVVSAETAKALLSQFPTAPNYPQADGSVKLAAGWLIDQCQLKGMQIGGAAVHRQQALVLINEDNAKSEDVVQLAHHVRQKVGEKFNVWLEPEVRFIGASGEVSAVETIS

For the molecule `O=C1OC(=Cc2cccc3ccccc23)C(O)=C1c1ccc(C=NO)cc1` (mixture of isomers) [Example 73], the “MurB IC50” value is over 25 µg/mL in assay [1] and 12 µg/mL in assay [2]. Besides, the “MIC E. faecalis GC 2242” value in assay [3] (E. faecalis GC 2242) is over 128 µg/mL. The “MIC E. faecalis GC 4555” value in assay [3] (E. faecalis GC 4555) is over 128 µg/mL. Besides, the “MurC IC50” value in assay [4] stood at 23 µg/mL.
As for `COc1cc(/C=C2\OC(=O)C(c3cccc(Cl)c3)=C2O)ccc1-c1ccccc1Cl` [Example 18], the IC50 – broadly, the midpoint of a concentration-inhibition curve – in assay [1] is 13.7 µM; in assay [2] it was 11.4 µM; in assay [4] it was 22.8 µM. For the same molecule, the MIC (in general, the least concentration at which growth counts as inhibited) in assay [3] (setting [5]) amounted to 8 µg/mL (≈ 18.2 µM); in assay [3] (setting [6]), 16 µg/mL (≈ 36.4 µM).
For `COc1ccccc1-c1ccc(/C=C2\OC(=O)C(c3cc(Cl)cc(Cl)c3)=C2O)cc1OC` [Example 19], the IC50 is 42.6 µM in assay [1], 21.3 µM in assay [2] and 40.5 µM in assay [4]. Besides, the MIC in assay [3] (setting [5]) and in assay [3] (setting [6]) was 8 µg/mL (≈ 17 µM) in each case.
On to `COc1ccccc1-c1ccc(/C=C2\OC(=O)C(c3ccc(Cl)c(Cl)c3)=C2O)cc1OC` [Example 20], for which the IC50 in assay [1] was 6.39 µM; in assay [2], 6.39 µM; in assay [4] it was 32 µM. Moreover, the MIC in assay [3] (setting [5]) and in assay [3] (setting [6]) was 16 µg/mL (≈ 34.1 µM) each time.
For the molecule `COc1cc(/C=C2\OC(=O)C(c3cc(Cl)cc(Cl)c3)=C2O)ccc1-c1ccccc1Cl` [Example 21], the IC50 in assay [1] was 10.6 µM; in assay [2], 6.33 µM; in assay [4] it was 42.2 µM. Also, the MIC in assay [3] (setting [5]) came out at 2 µg/mL (≈ 4.22 µM); in assay [3] (setting [6]), 4 µg/mL (≈ 8.44 µM).
For the molecule `COc1cc(/C=C2\OC(=O)C(c3cccc(Cl)c3)=C2O)ccc1-c1ccccc1C` [Example 22], the results for the IC50 in assay [1], in assay [2] and in assay [4] were 14.3 µM, 14.3 µM and 28.6 µM, respectively. Further, the results for the MIC in assay [3] (setting [5]) and in assay [3] (setting [6]) were 8 µg/mL (≈ 19.1 µM) and 16 µg/mL (≈ 38.2 µM), respectively.
For `COc1ccccc1-c1ccc(/C=C2\OC(=O)C(c3cccc(Cl)c3)=C2O)cc1C` [Example 23], the IC50 is 9.55 µM in assay [1], 11.9 µM in assay [2] and 28.6 µM in assay [4]. For the same molecule, the MIC in assay [3] (setting [5]) and in assay [3] (setting [6]) was 8 µg/mL (≈ 19.1 µM) in each case.
As to `COc1ccccc1-c1ccc(/C=C2\OC(=O)C(c3cc(Cl)cc(Cl)c3)=C2O)cc1C` [Example 24], the IC50 was 8.82 µM in assay [1], 4.41 µM in assay [2] and 26.5 µM in assay [4]. For the same molecule, the MIC in assay [3] (setting [5]) and in assay [3] (setting [6]) was 4 µg/mL (≈ 8.82 µM) each time.
For `COc1cc(/C=C2\OC(=O)C(c3cc(Cl)cc(Cl)c3)=C2O)ccc1-c1ccccc1C` [Example 25], the IC50 was 4.41 µM in assay [1], 4.41 µM in assay [2] and 26.5 µM in assay [4]. Further, the MIC in assay [3] (setting [5]) came out at 2 µg/mL (≈ 4.41 µM); in assay [3] (setting [6]), 4 µg/mL (≈ 8.82 µM).
`Cc1cc(/C=C2\OC(=O)C(c3cccc(Cl)c3)=C2O)ccc1-c1ccccc1C(F)(F)F` [Example 26]: the values for the half-maximal inhibitory concentration (IC50) in assay [1], in assay [2] and in assay [4] were 6.57 µM, 4.38 µM and 13.1 µM, respectively. Moreover, the results for the minimal inhibitory concentration (MIC) in assay [3] (setting [5]) and in assay [3] (setting [6]) were 2 µg/mL (≈ 4.38 µM) and 4 µg/mL (≈ 8.76 µM), respectively.
For `Cc1cc(/C=C2\OC(=O)C(c3cc(Cl)cc(Cl)c3)=C2O)ccc1-c1ccccc1C(F)(F)F` [Example 27], in that order: 6.11 µM, 4.07 µM, over 50.9 µM, 1 µg/mL (≈ 2.04 µM) and 2 µg/mL (≈ 4.07 µM).
Regarding `COc1ccc(/C=C2\OC(=O)C(c3cc(Cl)cc(Cl)c3)=C2O)c2ccccc12` [Example 36], the IC50 is 7.26 µM in assay [2] and 12.1 µM in assay [4]. Also, the MIC was 4 µg/mL (≈ 9.68 µM) in assay [3] (setting [5]) and 8 µg/mL (≈ 19.4 µM) in assay [3] (setting [6]).
For the molecule `O=C1O/C(=C\c2ccc(N3CCOCC3)c3ccccc23)C(O)=C1c1cccc(Cl)c1` [Example 37], the IC50 in assay [2] and in assay [4] was 23 µM throughout. Also, the MIC came out at 16 µg/mL (≈ 36.9 µM) in assay [3] (setting [5]) and 32 µg/mL (≈ 73.8 µM) in assay [3] (setting [6]).
With `O=C1O/C(=C\c2ccc(N3CCOCC3)c3ccccc23)C(O)=C1c1cc(Cl)cc(Cl)c1` [Example 38], the IC50 in assay [2] was 17.1 µM; in assay [4], 14.9 µM. The MIC in assay [3] (setting [5]) came out at 16 µg/mL (≈ 34.2 µM); in assay [3] (setting [6]) it was 32 µg/mL (≈ 68.3 µM).
